Holding throughout (test): yeast liquid growth assay
Holding throughout (type): cell-based

In one assay the target is T1, hA1AR L134F^4.52 (Homo sapiens, UniProt P30542, L134F).
T1 sequence (P30542 1-326 L134F): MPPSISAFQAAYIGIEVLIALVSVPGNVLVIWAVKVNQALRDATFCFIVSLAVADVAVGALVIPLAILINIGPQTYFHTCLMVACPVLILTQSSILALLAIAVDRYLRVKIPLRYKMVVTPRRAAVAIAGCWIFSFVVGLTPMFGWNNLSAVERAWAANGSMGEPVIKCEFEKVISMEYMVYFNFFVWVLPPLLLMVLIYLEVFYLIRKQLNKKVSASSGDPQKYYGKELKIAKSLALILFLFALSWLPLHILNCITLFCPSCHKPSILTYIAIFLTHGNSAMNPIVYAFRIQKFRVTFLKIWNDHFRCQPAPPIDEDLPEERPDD
The settings on record: result in words.

In the next assay the target is T2, wild type hA1AR (Homo sapiens, UniProt P30542).
T2 sequence (P30542 1-326): T1 sequence (P30542 1-326 L134F) with F134L
The settings on record: ratio over basal activity of wild type hA1AR, 7 mM 3-AT.

The target of another assay is T3, hA1AR R122Q^4.40 (Homo sapiens, UniProt P30542, R122Q).
T3 construct: expressed in transfected cells; host or cells: S. cerevisiae MMY24
T3 sequence (P30542 1-326 R122Q): T1 sequence (P30542 1-326 L134F) with R122Q, F134L
The settings on record: ratio over basal activity of wild type hA1AR, 7 mM 3-AT.

The next assay addresses T4, hA1AR A20T^1.43 (Homo sapiens, UniProt P30542, A20T).
T4 construct: expressed in transfected cells; host or cells: S. cerevisiae MMY24
T4 sequence (P30542 1-326 A20T): T1 sequence (P30542 1-326 L134F) with A20T, F134L
The settings on record: ratio over basal activity of wild type hA1AR, 7 mM 3-AT.

The next assay deals with T5, hA1AR S267I^7.32 (Homo sapiens, UniProt P30542, S267I).
T5 construct: expressed in transfected cells; host or cells: S. cerevisiae MMY24
T5 sequence (P30542 1-326 S267I): T1 sequence (P30542 1-326 L134F) with F134L, S267I
Particulars: result in words.

In a further assay the target is T6, hA1AR P86L^3.31 (Homo sapiens, UniProt P30542, P86L).
T6 construct: expressed in transfected cells; host or cells: S. cerevisiae MMY24
T6 sequence (P30542 1-326 P86L): T1 sequence (P30542 1-326 L134F) with P86L, F134L
The settings on record: result in words.

Numbering of substitutions follows the chain as printed. Entries after “also recorded” stand apart in the source; their conditions may differ.

Consider `OC[C@H]1O[C@@H](n2cnc3c(NC4CCCC4)ncnc32)[C@H](O)[C@@H]1O` [CPA, N^6-cyclopentyladenosine], for which the results for the agonist-induced receptor activation result at hA1AR L134F^4.52, at hA1AR S267I^7.32 and on hA1AR P86L^3.31 were “could not be activated”, “could not be activated; also recorded: complete loss of activation” and “could not be activated”, respectively. Besides, the values for the Emax on wild type hA1AR, at hA1AR R122Q^4.40 and at hA1AR A20T^1.43 were 4.83 ± 0.30, 4.67 ± 0.22 and 4.23 ± 0.60, respectively.

Source of the values: PMC9229843, “Cancer-Related Somatic Mutations in Transmembrane Helices Alter Adenosine A1 Receptor Pharmacology” (Molecules, 2022).
